Values after ≈ are worked out from the molar mass of the structure shown.
Columns and labels:
Ctenocephalides felis = experiment: Antiparasitic activity after administration to rats, fleas; format: in vivo; settings: for flea efficacy on rats compared with the parent drug also injected subcutaneously: SC; for Efficacy SD42: sc, CF A, study day 42, 13.33-13.98 mg/kg prodrugs
Method: (§1) Measurement of the Antiparasitic Activity after Administration of a Prodrug to Rats Compounds were dissolved in the appropriate volume of glycerol formal (p.a.) just before application to the animals (dose volume was adjusted to 0.03 mL/kg bodyweight). 5 rats per group were either injected intraperitoneally or subcutaneously. Rats were infested with 30 Dermacentor variabilis nymphs on study days −2, 7, 14, 21, 28, 35 and 30 adult Ctenocephalides fleas on study days −1, 8, 15, 22, 29, 36. […] Percent efficacy was calculated as arithmetic mean parasite numbers as life attached tick numbers and live flea numbers of the respective study group in comparison to parasite counts on a placebo-treated control group. Infestation of groups with less than 75% efficacy on two consecutive counting occasions will terminated for the respective parasite.

Dermacentor variabilis [1] = experiment: Antiparasitic activity after administration to rats, tick nymphs; format: in vivo; settings: for tick efficacy on rats compared with the parent drug also injected subcutaneously: SC; for Efficacy SD42: sc, DV N, study day 42, 13.33-13.98 mg/kg prodrugs
Method: as §1

[2] = Measurement of solubility in buffer at pH 6.5; format: physicochemical; settings: aqueous buffer, kinetic from dmso stock; PBS buffer pH 6.5, shaken 24h at rt, LC-MSMS; read-out: Solubility of example compounds at pH 6.5
Method: Measurement of Solubility in Buffer at pH 6.5 2-4 mg of the test compound are dissolved in DMSO to reach a concentration of 50 g/L (solution A). To 10 μl of this solution 960 μl PBS buffer pH 6.5 are added (final concentration: 515 μg/1); the mixture is shaken for 24h at rt in a 96 well plate. An aliquot is centrifuged at 42000 rpm für 30 min. The supernatant is diluted with acetonitrile/water (8:2) 1:10 and 1:1000 resp. This diluted samples are analyzed by LC-MSMS. Calibration: 10 μl of solution A are diluted with 823 μl DMSO (final concentration: 600 μg/ml), which is further diluted with acetonitrile/water 8:2 by a factor of 100 (provides solution B). The calibration curve is obtained from solution B by further diluting with acetonitrile/water 8:2 with target concentrations of 1.2-12-60-600 ng/ml and injecting these four solutions for MS measurement. PBS-Puffer: 6.18 g sodium chloride and 3.96 g sodium dihydrogen phosphate are dissolved in 1 L aqua dist., the pH is adjusted to 6.5 with 1N sodium hydroxide. The following conditions were used for quantification: Autosampler without auto inject ahead setting, column: Waters OASIS HLB, 2,1×20 mm, 25μ, column temperature: 30° C., flow rate: 2.5 mL/min, injected volume: 2 μl, Splitter (before MS) 1:20.

Dermacentor variabilis [3] = experiment: Antiparasitic activity after administration to dogs, D. variabilis ticks; format: in vivo; settings: sc
Method: Measurement of the Antiparasitic Activity after Administration of a Prodrug to Dogs
Compounds were dissolved in the appropriate volume of glycerol formal (p.a.) just before application to the animals (dose volume was adjusted to 0.1 ml/kg bodyweight). Dogs were injected intravenously respective subcutaneously (see table 8 for details).
Dogs were infested with ectoparasites according to table on study 1 day prior to counting for fleas, 2 days prior to counting for RS, IR, DV ticks and 3 days prior to counting for AA ticks. For this purpose, dogs were placed in an individually labeled box with grid windows. The ticks were released onto the back of the dogs and were allowed to disperse and move into the hair without disturbance. The dog remained in the box for approximately 120 minutes with the lid closed and the light switched off in the room. For flea infestations, flea containers were opened in the animal's cage and fleas were applied on the dog's back between the shoulders.
Tick counts including removal of I. ricinus, R. sanguineus and D. variabilis were conducted 48(±4) hours after the infestation. Tick counts including removal of A. americanum were conducted 72(±4) hours after the infestation. Flea counts were conducted 24(±4) hours after the infestation.
On each parasite assessment day percent efficacy was calculated as arithmetic mean parasite numbers as life attached and live free tick numbers and live flea numbers of the respective study group in comparison to parasite counts on a placebo non-treated control group.

[4] = Degradation of prodrugs and release of parent compound in dog plasma; format: in vitro ADME
Method: Measurement of Release of Parent Compound in Dog Plasma 1 mg of the test compound was dissolved in 0.5 mL acetonitrile/dimethylsulfoxide 9:1. For complete dissolution the HPLC vial was shaken and treated with ultrasound. 20 μl of this solution were added to 1 mL of dog plasma (Beagle) under vortexing at a temperature of 37° C. Aliquots (100 μL each) were taken at 0.17, 0.5, 1, 1.5, 2 and 4 hours. Each aliquot was transferred to a vial containing 300 μL of acetonitrile/citric acid buffer pH 3 80:20. These solutions were centrifuged at 5000 rpm for 10 minutes. The supernatant was analysed by HPLC (Method 8) to determine the amount of the test compound. In addition, the reaction mixture was analysed by method 9 (HPLC-MS) at the final timepoint. Both decrease of the prodrug concentration and increase of parent compound concentration were monitored. All data is given as percent area of the prodrug at t0.

Compound: CC(C)(COC(=O)/C=C/C(=O)O)COC(=O)OCN(C(=O)c1cc(-c2cnn(-c3c(Cl)cc(C(F)(C(F)(F)F)C(F)(F)F)cc3OC(F)(F)F)c2)ccc1Cl)C1(C#N)CC1 [Example 4, (12E)-1-(2-chloro-5-{1-[2-chloro-4-(1,1,1,2,3,3,3-heptafluoropropan-2-yl)-6-(trifluoromethoxy)phenyl]-1H-pyrazol-4-yl}phenyl)-2-(1-cyanocyclopropyl)-8,8-dimethyl-1,5,11-trioxo-4,6,10-trioxa-2-azatetradec-12-en-14-oic Acid]
- flea efficacy on rats compared with the parent drug also injected subcutaneously (Ctenocephalides felis): superior
- tick efficacy on rats compared with the parent drug also injected subcutaneously (Dermacentor variabilis [1]): superior
- solubility at 24 h [2]: 2 µg/mL (≈ 2.2 µM)

Compound: N#CC1(N(COC(=O)OCCCOC(=O)/C=C/C(=O)O)C(=O)c2cc(-c3cnn(-c4c(Cl)cc(C(F)(C(F)(F)F)C(F)(F)F)cc4OC(F)(F)F)c3)ccc2Cl)CC1 [Example 2, (12E)-1-(2-Chloro-5-{1-[2-chloro-4-(1,1,1,2,3,3,3-heptafluoropropan-2-yl)-6-(trifluoromethoxy)phenyl]-1H-pyrazol-4-yl}phenyl)-2-(1-cyanocyclopropyl)-1,5,11-trioxo-4,6,10-trioxa-2-azatetradec-12-en-14-oic Acid]
- Efficacy SD42 (Ctenocephalides felis): 69%
- Efficacy SD42 (Dermacentor variabilis [1]): 82%
- solubility at 24 h [2]: 4 µg/mL (≈ 4.55 µM)

Compound: N#CC1(N(COC(=O)OCCOC(=O)/C=C/C(=O)O)C(=O)c2cc(-c3cnn(-c4c(Cl)cc(C(F)(C(F)(F)F)C(F)(F)F)cc4OC(F)(F)F)c3)ccc2Cl)CC1 [Example 1, (11E)-1-(2-Chloro-5-{1-[2-chloro-4-(1,1,1,2,3,3,3-heptafluoropropan-2-yl)-6-(trifluoromethoxy)phenyl]-1H-pyrazol-4-yl}phenyl)-2-(1-cyanocyclopropyl)-1,5,10-trioxo-4,6,9-trioxa-2-azatridec-11-en-13-oic Acid]
- flea efficacy on rats compared with the parent drug also injected subcutaneously (Ctenocephalides felis): superior
- Efficacy SD42 (Ctenocephalides felis): 79%
- duration of efficacy against D. variabilis as least sensitive species (Dermacentor variabilis [3]): five
- % Efficacy in study month 4 (Dermacentor variabilis [3]; 13.33 mg/kg (=10 parent), DV, study 4, month 4): 96%
- % Efficacy in study month 5 (Dermacentor variabilis [3]; 13.33 mg/kg (=10 parent), DV, study 4, month 5): 100%
- % Efficacy in study month 6 (Dermacentor variabilis [3]; 13.33 mg/kg (=10 parent), DV, study 4, month 6): 77%
- % Parent Drug 4 h ([4]; Beagle, dog, 4 h, 39.2 µg/mL): 32%
- recovery at 0.17 h, 39 µg/mL ([4]; dog plasma (Beagle), 37° C., 0.17 h, percent area of prodrug at t0): 100%
- recovery at 0.5 h, 39 µg/mL ([4]; dog plasma (Beagle), 37° C., 0.5 h): 100%
- recovery at 1 h, 39 µg/mL ([4]; dog plasma (Beagle), 37° C., 1 h): 100%
- recovery at 1.5 h, 39 µg/mL ([4]; dog plasma (Beagle), 37° C., 1.5 h): 88%
- recovery at 2 h, 39 µg/mL ([4]; dog plasma (Beagle), 37° C., 2 h): 82%
- recovery at 4 h, 39 µg/mL ([4]; dog plasma (Beagle), 37° C., 4 h): 54%
- tick efficacy on rats compared with the parent drug also injected subcutaneously (Dermacentor variabilis [1]): superior
- Efficacy SD42 (Dermacentor variabilis [1]): 81%
- solubility at 24 h [2]: 5 µg/mL (≈ 5.78 µM)

Compound: N#CC1(N(COC(=O)OCC2(C(=O)O)CC2)C(=O)c2cc(-c3cnn(-c4c(Cl)cc(C(F)(C(F)(F)F)C(F)(F)F)cc4OC(F)(F)F)c3)ccc2Cl)CC1 [Example 35, 1-{[({[(2-chloro-5-{1-[2-chloro-4-(1,1,1,2,3,3,3-heptafluoropropan-2-yl)-6-(trifluoromethoxy)phenyl]-1H-pyrazol-4-yl}benzoyl)(1-cyanocyclopropyl)amino]methoxy}carbonyl)oxy]methyl}cyclopropane-1-carboxylic Acid]
- solubility at 24 h [2]: 8 µg/mL (≈ 9.74 µM)

Compound: N#CC1(N(COC(=O)OCCOC(=O)CCC(=O)O)C(=O)c2cc(-c3cnn(-c4c(Cl)cc(C(F)(C(F)(F)F)C(F)(F)F)cc4OC(F)(F)F)c3)ccc2Cl)CC1 [Example 3, 1-(2-Chloro-5-{1-[2-chloro-4-(1,1,1,2,3,3,3-heptafluoropropan-2-yl)-6-(trifluoromethoxy)phenyl]-1H-pyrazol-4-yl}phenyl)-2-(1-cyanocyclopropyl)-1,5,10-trioxo-4,6,9-trioxa-2-azatridecan-13-oic Acid]
- solubility at 24 h [2]: 6 µg/mL (≈ 6.92 µM)

Compound: N#CC1(N(COC(=O)O[C@H]2CCC[C@@H]2OC(=O)CCC(=O)O)C(=O)c2cc(-c3cnn(-c4c(Cl)cc(C(F)(C(F)(F)F)C(F)(F)F)cc4OC(F)(F)F)c3)ccc2Cl)CC1 [Example 11, 4-({(1S,2S)-2-[({[(2-chloro-5-{1-[2-chloro-4-(1,1,1,2,3,3,3-heptafluoropropan-2-yl)-6-(trifluoromethoxy)phenyl]-1H-pyrazol-4-yl}benzoyl)(1-cyanocyclopropyl)amino]methoxy}carbonyl)oxy]cyclopentyl}oxy)-4-oxobutanoic Acid]
- solubility at 24 h [2]: 2 µg/mL (≈ 2.2 µM)

Source: US20220008391A1, “NOVEL COMPOUNDS FOR CONTROLLING ARTHROPODS” (Bayer Animal Health GmbH, priority 2018, published 2022)
